≈ marks a conversion by molar mass, not a printed value. Read-outs that look alike come from different tables or passages of the source.
Assays:
Escherichia coli W 677 = test: Minimum inhibitory concentration, serial dilution on nutrient agar; assay type: cell-based
Description: (§1) Minimum inhibitory concentrations (mcg/ml) of streptomycin and of the parent 3"-deoxydihydrostreptomycin were also estimated in the same manner as above for the comparison purpose and are shown in Table 1 below.

Sarcia lutea 1001 = test: as above; assay type: cell-based; conditions: 17 h
Description: as §1

[1] = system: Staphylococcus aureus 209 P; test: as above; assay type: cell-based
Description: as §1

[2] = system: Bacillus subtilis NRRL B558; test: as above; assay type: cell-based
Description: as §1

Salmonella typhi T-63 = test: as above; assay type: cell-based; conditions: Salmonella enterica, 17 h
Description: as §1

Escherichra coli ML 1630 = test: as above; assay type: cell-based; conditions: 37° C., 17 hours
Description: as §1

[3] = system: Pseudomonas aeruginosa A3; test: as above; assay type: cell-based
Description: as §1

[4] = system: Pseudomonas aeruginosa No. 12; test: as above; assay type: cell-based
Description: as §1

Escherichia coli K-12 = test: as above; assay type: cell-based
Description: as §1

[5] = system: Mycobacterium smegmatis 607; test: as above; assay type: cell-based
Description: as §1

Escherichia coli ML 1629 = test: as above; assay type: cell-based
Description: as §1

[6] = system: Escherichia coli JR66/W677; test: as above; assay type: cell-based; conditions: 37° C., 17 hours
Description: as §1

[7] = system: Escherichia coli C600 R135; test: as above; assay type: cell-based; conditions: C600R135, 17 h
Description: as §1

resistant bacteria = conditions: Kokai No. 105154/77; Journal of Antibiotics Vol. 29, 978 (1976); cited from earlier work
in vivo = conditions: mouse, iv
[8] = system: streptomycin-resistant bacteria; test: Activity against streptomycin-resistant bacteria; assay type: cell-based; conditions: variety of streptomycin-resistant bacteria
Description: as §1

ICR mice = test: Acute toxicity by intravenous injection in mice; conditions: dosage of 4 mg/kg (so in the source)
[9] = Staphylococcus aureus, 209P, 17 h
[10] = W677, Escherichia coli W 677, nutrient agar, 37° C., 17 hours, read-out: MIC.
[11] = NRRLB558, Bacillus subtilis NRRL B558, nutrient agar, 37° C., 17 hours, read-out: MIC.
[12] = Pseudomonas aeruginosa A3, nutrient agar, 37° C., 17 hours, read-out: MIC.
[13] = Pseudomonas aeruginosa No. 12, nutrient agar, 37° C., 17 hours, read-out: MIC.
[14] = K12, Escherichia coli K-12, nutrient agar, 37° C., 17 hours, read-out: MIC.
[15] = Mycolicibacterium smegmatis, Mycobacterium smegmatis 607, nutrient agar, 37° C., 17 hours, read-out: MIC.

[H]/N=C(/N)N[C@H]1[C@H](O)[C@@H](O)[C@H](O[C@@H]2O[C@@H](C)[C@](O)(C=O)[C@H]2O[C@@H]2O[C@@H](CO)[C@H](O)[C@@H](O)[C@@H]2NC)[C@@H](N/C(N)=N\[H])[C@@H]1O [Streptomycin, streptomycin] gave an MIC (Escherichia coli W 677; Escherichia coli, W677, 17 h) of 1.56 mg/L (≈ 2.68 µM), an MIC (Sarcia lutea 1001) of 1.56 mg/L (≈ 2.68 µM) and an MIC [1, 9] of 3.12 mg/L (≈ 5.36 µM). The MIC ([2]; Bacillus subtilis, NRRLB558, 17 h) was 0.78 mg/L (≈ 1.34 µM), the MIC (Salmonella typhi T-63) was 25 mg/L (≈ 43 µM) and the MIC (Escherichra coli ML 1630) was over 100 mg/L. The MIC ([3]; Pseudomonas aeruginosa, A3, 17 h) was 6.25 mg/L (≈ 10.7 µM), the MIC ([4]; Pseudomonas aeruginosa, NO.12, 17 h) was 25 mg/L (≈ 43 µM) and the MIC (Escherichia coli K-12; Escherichia coli, K12, 17 h) was 1.56 mg/L (≈ 2.68 µM). The MIC ([5]; Mycolicibacterium smegmatis, 607, 17 h) was 1.56 mg/L (≈ 2.68 µM), the MIC (Escherichia coli ML 1629; Escherichia coli, ML1629, 17 h) was 100 mg/L (≈ 172 µM) and the MIC [6] was over 100 mg/L. It also gave an MIC [7] of 50 mg/L (≈ 86 µM).
In the case of CNC1CC(O)C(CO)OC1OC1C(OC2C(O)C(O)C(NC(=N)N)C(O)C2NC(=N)N)OC(C)C1(O)CO (stereo not shown) [3"-Deoxydihydrostreptomycin, 3"-deoxydihydrostreptomycin], the MIC (Escherichia coli W 677; [10]) is reported as 1.56 mg/L (≈ 2.75 µM), the MIC (Sarcia lutea 1001) is reported as 3.12 mg/L (≈ 5.5 µM) and the MIC [1, 9] is reported as 3.12 mg/L (≈ 5.5 µM). It also gave an MIC [2, 11] of 1.56 mg/L (≈ 2.75 µM), an MIC (Salmonella typhi T-63) of 3.12 mg/L (≈ 5.5 µM) and an MIC (Escherichra coli ML 1630) of 1.56 mg/L (≈ 2.75 µM). The MIC [3, 12] was 12.5 mg/L (≈ 22 µM), the MIC [4, 13] was 25 mg/L (≈ 44 µM) and the MIC (Escherichia coli K-12; [14]) was 1.56 mg/L (≈ 2.75 µM). The MIC [5, 15] was 0.78 mg/L (≈ 1.37 µM), the MIC (Escherichia coli ML 1629; Escherichia coli, ML1629, 17 h) was 3.12 mg/L (≈ 5.5 µM) and the MIC [6] was 12.5 mg/L (≈ 22 µM). For the same compound, the MIC [7] was 3.12 mg/L (≈ 5.5 µM) and the “activity against the resistant bacteria” value (resistant bacteria) was “active against the resistant bacteria”.
With CNC1CC(O)C(CO)OC1OC1C(OC2C(O)C(O)C(NC(=N)N)C(O)C2NC(=N)N)OC(C)C1(O)C=O (stereo not shown) [3"-Deoxystreptomycin, 3"-deoxystreptomycin] the MIC (Escherichia coli W 677; [10]) was 1.56 mg/L (≈ 2.76 µM), the MIC (Sarcia lutea 1001) was 1.56 mg/L (≈ 2.76 µM) and the MIC ([1]; Staphylococcus aureus 209 P, nutrient agar, 37° C., 17 hours, read-out: MIC.) was 3.12 mg/L (≈ 5.52 µM). For the same compound, the MIC [2, 11] was 1.56 mg/L (≈ 2.76 µM), the MIC (Salmonella typhi T-63) was 0.78 mg/L (≈ 1.38 µM) and the MIC (Escherichra coli ML 1630) was 3.12 mg/L (≈ 5.52 µM). It also gave an MIC [3, 12] of 6.25 mg/L (≈ 11.1 µM), an MIC [4, 13] of 25 mg/L (≈ 44.2 µM) and an MIC (Escherichia coli K-12; [14]) of 1.56 mg/L (≈ 2.76 µM). For the same compound, the MIC [5, 15] was 0.78 mg/L (≈ 1.38 µM), the MIC (Escherichia coli ML 1629; ML1629, Escherichia coli ML 1629, nutrient agar, 37° C., 17 hours, read-out: MIC.) was 1.56 mg/L (≈ 2.76 µM) and the MIC [6] was 12.5 mg/L (≈ 22.1 µM). The MIC [7] was 3.12 mg/L (≈ 5.52 µM), the LD50 at 336 h (in vivo) was over 200 mg/kg and the “activity against streptomycin-resistant bacteria” value [8] was “active against a variety of streptomycin-resistant bacteria”. The “survival for more than 14 days” value (ICR mice) was “all the treated mice survived for more than 14 days”.
